Experimental data published in patent publication US7429579B2, “Tetrahydrobenzazepine derivatives useful as modulators of dopamine D3 receptors (antipsychotic agents)” (SmithKline Beecham, PLC, priority 2000, dated 2008).
Structures can show the parent of a compound that is named as a salt.

target: T1, dopamine D3 receptor (Homo sapiens, UniProt P35462); assay: Binding experiments on cloned dopamine receptors: displacement of [125I]-Iodosulpride; settings: cloned human D3 receptor expressed in CHO cells, [125I]-Iodosulpride displacement; pKi accurate to about ±0.2-0.3
T1 construct: expressed in transfected cells; host or cells: CHO cells (crude cell membranes)
Procedure: Binding Experiments on Cloned Dopamine (e.g. D2, D3 and D4) Receptors
Cultures were grown as monolayers or in suspension in standard cell culture media. Cells were recovered by scraping (from monolayers) or by centrifugation (from suspension cultures), and were washed two or three times by suspension in phosphate buffered saline followed by collection by centrifugation. Cell pellets were stored frozen at −80° C. Crude cell membranes were prepared by homogenisation followed by high-speed centrifugation, and characterisation of cloned receptors achieved by radioligand binding.
Preparation of Cho Cell Membranes: Cell Pellets were Gently Thawed at Room temperature, and resuspended in about 20 volumes of ice-cold Extraction buffer; 5 mM EDTA, 50 mM Trizma pre-set crystals (pH7.4@37° C.), 1 mM MgCl2, 5 mM KCl and 120 mM NaCl. The suspension was homogenised using an Ultra-Turrax at full speed for 15 seconds. The homogenate was centrifuged at 18,000 r.p.m for 15 min at 4° C. in a Sorvall RC5C centrifuge. Supernatant was discarded, and homogenate re-suspended in extraction buffer then centrifugation was repeated. The final pellet was resuspended in 50 mM Trizma pre-set crystals (pH 7.4 @ 37° C.) and stored in 1 ml aliquot tubes at −80° C. (D2=3.0E+08 cells, D3=7.0E+07 cells and D4=1.0E+08 cells).
The total volume is 0.2 ml and incubated in a water bath at 37° C. for 40 minutes. Following incubation, samples were filtered onto GF/B Unifilters using a Can berra Packard Filtermate, and washed four times with ice-cold 50 mM Trizma pre-set crystals (pH 7.4 @ 37° C.). The radioactivity on the filters was measured using a Canberra Packard Topcount Scintillation counter. […] For competition curves, 10 serial log concentrations of competing cold drug were used (Dilution range: 10 μM-10 pM). Competition curves were analysed using Inflexion, an iterative curve fitting programme in Excel. Results were expressed as pKi values where pKi=−log 10 [Ki].

T1 sequence (P35462 whole entry): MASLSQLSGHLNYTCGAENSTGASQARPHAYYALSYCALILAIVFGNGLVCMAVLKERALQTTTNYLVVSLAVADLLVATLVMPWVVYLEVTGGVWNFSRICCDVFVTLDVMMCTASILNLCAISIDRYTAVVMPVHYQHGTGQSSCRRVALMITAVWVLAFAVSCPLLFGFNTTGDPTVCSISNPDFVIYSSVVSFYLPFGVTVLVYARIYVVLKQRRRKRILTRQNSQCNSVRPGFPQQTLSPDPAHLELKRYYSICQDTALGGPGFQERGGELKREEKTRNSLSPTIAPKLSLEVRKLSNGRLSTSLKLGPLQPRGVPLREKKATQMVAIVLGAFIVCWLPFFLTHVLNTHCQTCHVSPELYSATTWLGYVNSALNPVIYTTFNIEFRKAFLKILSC

Ki, 0.316 to 10 nM:
Cn1c(SCCCN2CCc3ccc(OS(C)(=O)=O)cc3CC2)nnc1-c1ccccc1 [Example 1, 3-{3-[(4-methyl-5-phenyl-4H-1,2,4-triazol-3-yl)thio]propyl}-2,3,4,5-tetrahydro-1H-3-benzazepin-7-yl methanesulfonate]
CS(=O)(=O)c1ccc2c(c1)CCN(CCCSc1nc(-c3ccccc3)c(-c3ccccc3)[nH]1)CC2 [Example 5, 3-{3-[(4,5-diphenyl-1H-imidazol-2-yl)thio]propyl}-7-(methylsulfonyl)-2,3,4,5-tetrahydro-1H-3-benzazepine]
Cn1c(SCCCN2CCc3ccc(OS(C)(=O)=O)cc3CC2)nnc1-c1cccs1 [Example 8, 3-(3-{[4-methyl-5-(2-thienyl)-4H-1,2,4-triazol-3-yl]thio}propyl)-2,3,4,5-tetrahydro-1H-3-benzazepin-7-yl methanesulfonate]
Cn1c(SCCCN2CCc3ccc(OS(C)(=O)=O)cc3CC2)nnc1-c1ccc2ncccc2c1 [Example 13, 3-(3-{[4-methyl-5-(6-quinolinyl)-4H-1,2,4-triazol-3-yl]thio}propyl)-2,3,4,5-tetrahydro-1H-3-benzazepin-7-yl methanesulfonate]
Cn1c(SCCCN2CCc3ccc(OS(C)(=O)=O)cc3CC2)nnc1-c1ccc(F)cc1 [Example 14, 3-(3-{[5-(4-fluorophenyl)-4-methyl-4H-1,2,4-triazol-3-yl]thio}propyl)-2,3,4,5-tetrahydro-1H-3-benzazepin-7-yl methanesulfonate]
CS(=O)(=O)Oc1ccc2c(c1)CCN(CCCSc1nc(-c3ccccc3)c(-c3ccccc3)[nH]1)CC2 [Example 22, 3-{3-[(4,5-diphenyl-1H-imidazol-2-yl)thio]propyl}-2,3,4,5-tetrahydro-1H-3-benzazepin-7-yl methanesulfonate]
Cn1c(SCCCN2CCc3ccc(S(=O)(=O)N4CCOCC4)cc3CC2)nnc1-c1ccc2ncccc2c1 [Example 51, 3-(3-{[4-methyl-5-(6-quinolinyl)-4H-1,2,4-triazol-3-yl]thio}propyl)-7-(4-morpholinylsulfonyl)-2,3,4,5-tetrahydro-1H-3-benzazepine]
Cc1cnc(-c2ccc3c(c2)CCN(CCCSc2nnc(-c4ccc5ncccc5c4)n2C)CC3)o1 [Example 61, 7-(5-methyl-1,3-oxazol-2-yl)-3-(3-{[4-methyl-5-(6-quinolinyl)-4H-1,2,4-triazol-3-yl]thio}propyl)-2,3,4,5-tetrahydro-1H-3-benzazepine]
Cc1cc(-c2ccc3c(c2)CCN(CCCSc2nnc(-c4ccc5ncccc5c4)n2C)CC3)no1 [Example 63, 7-(5-methyl-3-isoxazolyl)-3-(3-{[4-methyl-5-(6-quinolinyl)-4H-1,2,4-triazol-3-yl]thio}propyl)-2,3,4,5-tetrahydro-1H-3-benzazepine]
Cn1c(SCCCN2CCc3ccc(S(=O)(=O)c4ccccc4)cc3CC2)nnc1-c1ccc(F)cc1F [Example 67, 3-(3-{[5-(2,4-difluorophenyl)-4-methyl-4H-1,2,4-triazol-3-yl]thio}propyl)-7-(phenylsulfonyl)-2,3,4,5-tetrahydro-1H-3-benzazepine]
Cn1c(SCCCN2CCc3ccc(S(=O)(=O)N4CCOCC4)cc3CC2)nnc1-c1ccc(F)cc1F [Example 70, 3-(3-{[5-(2,4-difluorophenyl)-4-methyl-4H-1,2,4-triazol-3-yl]thio}propyl)-7-(4-morpholinylsulfonyl)-2,3,4,5-tetrahydro-1H-3-benzazepine]
Cn1c(SCCCN2CCc3ccc(S(C)(=O)=O)cc3CC2)nnc1-c1cc2ccccc2[nH]1 [Example 72, 3-(3-{[5-(1H-indol-2-yl)-4-methyl-4H-1,2,4-triazol-3-yl]thio}propyl)-7-(methylsulfonyl)-2,3,4,5-tetrahydro-1H-3-benzazepine]
Cn1c(SCCCN2CCc3ccc(S(C)(=O)=O)cc3CC2)nnc1-c1ccc2c(ccn2C)c1 [Example 74, 3-(3-{[4-methyl-5-(1-methyl-1H-indol-5-yl)-4H-1,2,4-triazol-3-yl]thio}propyl)-7-(methylsulfonyl)-2,3,4,5-tetrahydro-1H-3-benzazepine]
CCS(=O)(=O)c1ccc2c(c1)CCN(CCCSc1nnc(-c3cc4ccccc4s3)n1C)CC2 [Example 91, 3-(3-{[5-(1-benzothien-2-yl)-4-methyl-4H-1,2,4-triazol-3-yl]thio}propyl)-7-(ethylsulfonyl)-2,3,4,5-tetrahydro-1H-3-benzazepine]
CCS(=O)(=O)c1ccc2c(c1)CCN(CCCSc1nnc(-c3cc4ccccc4[nH]3)n1C)CC2 [Example 93, 7-(ethylsulfonyl)-3-(3-{[5-(1H-indol-2-yl)-4-methyl-4H-1,2,4-triazol-3-yl]thio}propyl)-2,3,4,5-tetrahydro-1H-3-benzazepine]
CCS(=O)(=O)c1ccc2c(c1)CCN(CCCSc1nnc(-c3cc4ccccc4o3)n1C)CC2 [Example 95, 3-(3-{[5-(1-benzofuran-2-yl)-4-methyl-4H-1,2,4-triazol-3-yl]thio}propyl)-7-(ethylsulfonyl)-2,3,4,5-tetrahydro-1H-3-benzazepine]
CCS(=O)(=O)c1ccc2c(c1)CCN(CCCSc1nnc(-c3cccc4occc34)n1C)CC2 [Example 96, 3-(3-{[5-(1-benzofuran-4-yl)-4-methyl-4H-1,2,4-triazol-3-yl]thio}propyl)-7-(ethylsulfonyl)-2,3,4,5-tetrahydro-1H-3-benzazepine]
CCS(=O)(=O)c1ccc2c(c1)CCN(CCCSc1nnc(-c3cc4ccccc4n3C)n1C)CC2 [Example 99, 7-(ethylsulfonyl)-3-(3-{[4-methyl-5-(1-methyl-1H-indol-2-yl)-4H-1,2,4-triazol-3-yl]thio}propyl)-2,3,4,5-tetrahydro-1H-3-benzazepine]
CCS(=O)(=O)c1ccc2c(c1)CCN(CCCSc1nnc(-c3cccc4ccoc34)n1C)CC2 [Example 100, 3-(3-{[5-(1-benzofuran-7-yl)-4-methyl-4H-1,2,4-triazol-3-yl]thio}propyl)-7-(ethylsulfonyl)-2,3,4,5-tetrahydro-1H-3-benzazepine]
Cc1cc(-c2ccc3c(c2)CCN(CCCSc2nnc(-c4ccc5ncccc5c4)n2C)CC3)on1 [Example 126, 7-(3-methyl-5-isoxazolyl)-3-(3-{[4-methyl-5-(6-quinolinyl)-4H-1,2,4-triazol-3-yl]thio}propyl)-2,3,4,5-tetrahydro-1H-3-benzazepine]
Cc1cc(-c2ccc3c(c2)CCN(CCCSc2nnc(-c4ccc(F)cc4F)n2C)CC3)no1 [Example 131, 3-(3-{[5-(2,4-difluorophenyl)-4-methyl-4H-1,2,4-triazol-3-yl]thio}propyl)-7-(5-methyl-3-isoxazolyl)-2,3,4,5-tetrahydro-1H-3-benzazepine]
Cc1cc(-c2ccc3c(c2)CCN(CCCSc2nnc(-c4ccc(F)c5ncccc45)n2C)CC3)no1 [Example 135, 3-(3-{[5-(8-fluoro-5-quinolinyl)-4-methyl-4H-1,2,4-triazol-3-yl]thio}propyl)-7-(5-methyl-3-isoxazolyl)-2,3,4,5-tetrahydro-1H-3-benzazepine]
Cc1ccc2c(-c3nnc(SCCCN4CCc5ccc(-c6cc(C)on6)cc5CC4)n3C)ccc(F)c2n1 [Example 137, 3-(3-{[5-(8-fluoro-2-methyl-5-quinolinyl)-4-methyl-4H-1,2,4-triazol-3-yl]thio}propyl)-7-(5-methyl-3-isoxazolyl)-2,3,4,5-tetrahydro-1H-3-benzazepine]
Cc1cc(-c2ccc3c(c2)CCN(CCCSc2nnc(-c4ccc5cnccc5n4)n2C)CC3)no1 [Example 146, 7-(5-methyl-3-isoxazolyl)-3-(3-{[4-methyl-5-(1,6-naphthyridin-2-yl)-4H-1,2,4-triazol-3-yl]thio}propyl)-2,3,4,5-tetrahydro-1H-3-benzazepine]
Cc1ccc2cc(-c3nnc(SCCCN4CCc5ccc(-c6ncc(C)o6)cc5CC4)n3C)ccc2n1 [Example 168, 3-(3-{[4-methyl-5-(2-methyl-6-quinolinyl)-4H-1,2,4-triazol-3-yl]thio}propyl)-7-(5-methyl-1,3-oxazol-2-yl)-2,3,4,5-tetrahydro-1H-3-benzazepine]
CCn1c(SCCCN2CCc3ccc(-c4ncc(C)o4)cc3CC2)nnc1-c1ccc2ncccc2c1 [Example 169, 3-(3-{[4-ethyl-5-(6-quinolinyl)-4H-1,2,4-triazol-3-yl]thio}propyl)-7-(5-methyl-1,3-oxazol-2-yl)-2,3,4,5-tetrahydro-1H-3-benzazepine]
Cc1ccc2cc(-c3nnc(CCCCN4CCc5ccc(-c6cc(C)on6)cc5CC4)n3C)ccc2n1 [Example 173, 7-(5-Methyl-3-isoxazolyl)-3-{4-[4-methyl-5-(2-methyl-6-quinolinyl)-4H-1,2,4-triazol-3-yl]butyl}-2,3,4,5-tetrahydro-1H-3-benzazepine hydrochloride]
